According to patent publication US20230099344A1, “COMPOUNDS AND METHODS FOR THE TARGETED DEGRADATION OF IRAK-4” (Arvinas Operations, Inc., priority 2021, published 2023):
Where two headings read alike, the source gives them in different places.

Key:
Assay type in all cases: cell-based
IL6 = assay: IL-1β stimulated IL6 inhibition assay in PBMC; conditions: human PBMCs, IL-1β stimulation, compound overnight, IL6 by MSD after 24 hrs; for IC50: read-out: IL1β stim IL6 inhibition IC50; for Emax: read-out: IL1β stim IL6 inhibition Ymax
Procedure: (§1) IL-1β, LPS, or R848 Stimulated IL6 Inhibition and IL-1β Stimulated IL8 Inhibition Assay
(§2) Human PBMC cells were seeded at 2.0×10^6 cells/mL, treated with compound overnight, and dosed with the EC50 concentration of each stimulant (either IL-1B. LPS, or R848) was determined for each donor. After 24 hrs, media was collected and analyzed by MSD for IL6 and/or IL8 levels.

IL8 = assay: IL-1β stimulated IL8 inhibition assay in PBMC; conditions: human PBMCs, IL-1β stimulation, compound overnight, IL8 by MSD after 24 hrs; for IC50: read-out: IL1β stim IL8 inhibition IC50; for Emax: read-out: IL1β stim IL8 inhibition Ymax
Procedure: as §1, §2

IRAK-4 [1] = target: T1, IRAK-4 (Homo sapiens, UniProt Q9NWZ3); assay: IRAK-4 ELISA, OCI-Ly10 degradation; set-up: endogenous in cells; conditions: treated overnight; for Dmax: OCI-Ly10, OCI-Ly10 cells
T1 sequence (Q9NWZ3 1-460): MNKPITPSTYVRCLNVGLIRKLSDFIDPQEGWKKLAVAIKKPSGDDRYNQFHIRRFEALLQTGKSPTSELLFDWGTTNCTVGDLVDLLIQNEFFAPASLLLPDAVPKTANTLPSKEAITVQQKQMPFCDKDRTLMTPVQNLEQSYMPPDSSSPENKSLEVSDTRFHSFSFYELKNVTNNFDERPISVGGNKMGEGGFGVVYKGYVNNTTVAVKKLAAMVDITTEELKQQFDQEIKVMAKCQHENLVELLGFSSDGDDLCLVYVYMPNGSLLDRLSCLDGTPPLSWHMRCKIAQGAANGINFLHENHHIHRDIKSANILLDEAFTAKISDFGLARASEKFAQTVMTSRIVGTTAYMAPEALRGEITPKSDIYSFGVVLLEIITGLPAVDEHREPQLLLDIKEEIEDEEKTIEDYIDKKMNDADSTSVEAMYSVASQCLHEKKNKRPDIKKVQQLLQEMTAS
Outline: (§3)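 ELISA quantification of cellular IRAK-4 after compound treatment overnight; PBMC were plated at 2×10^6/ml, OCI-Ly10 at 1×10^6/ml.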

IRAK-4 [2] = target: T1, IRAK-4; assay: IRAK-4 ELISA, PBMC degradation; set-up: endogenous in cells; host or cells: PBMC; conditions: treated overnight
Outline: as §3

SMILES	IC50 (IL6; Homo sapiens, PBMC, 24 h) [nM]	Emax (IL6; PBMC) [%]	IC50 (IL8) [nM]	Emax (IL8) [%]	Dmax (IRAK-4 [1]) [%]	DC50 (IRAK-4 [1]; OCI-Ly10 cells) [nM]	DC50 (IRAK-4 [2]) [nM]	Dmax (IRAK-4 [2]) [%]	PBMC DC90 (IRAK-4 [2])	IL1β stim IL6 inhibition Ymax (IL6)	IC50 (IL6) [nM]	OCI-LY10 Dmax (IRAK-4 [1]; OCI-Ly10 cells)	PBMC Dmax (IRAK-4 [2])
COc1cc2nn(C3CCN(CC4CN(c5cccc6c5n(C)c(=O)n6C5CCC(=O)NC5=O)C4)CC3)cc2cc1NC(=O)c1cnn2cccnc12 (centres unmarked) [Example 379]	< 10	80 to 90	10 to 50	70 to 80	≥ 90	< 10	< 1	≥ 90	A (A represents a DC90 value <10.0 nM)				
COc1cc2nn(C3CCN(CC4(F)CN(c5ccc6c(c5)C(=O)N(C5CCC(=O)NC5=O)C6=O)C4)CC3)cc2cc1NC(=O)c1cnn2cccnc12 (centres unmarked) [Example 207]	10 to 50	≥ 90	50 to 100	< 70	≥ 90	< 10	1 to 5	≥ 90	B (B represents a DC90 value ≥10.0 nM and <25.0 nM)				
O=C1CCC(N2C(=O)c3ccc(N4CCC(CN5CCC(N6Cc7cc(NC(=O)c8cnn9cccnc89)c(N8CCOCC8)cc7C6=O)CC5)CC4)cc3C2=O)C(=O)N1 (centres unmarked) [Example 32]			≥ 100	≥ 90		< 10	1 to 5		C (C represents a DC90 value ≥25.0 nM and <50 nM)	A (A represents a Ymax value ≥90)	10 to 50	D (D represents a Dmax value <70)	C (C represents a Dmax value ≥70 and <80)
CN(C1CN(c2ccc3c(c2)CN(C2CCC(=O)NC2=O)C3=O)C1)[C@H]1CC[C@H](n2cc3cc(NC(=O)c4cnn5cccnc45)c(OCC4CC4)cc3n2)CC1 (some centres unmarked) [Example 339]	< 10	≥ 90	10 to 50	70 to 80	≥ 90	< 10	< 1	≥ 90	A (A represents a DC90 value <10.0 nM)				
O=C1CCC(N2Cc3cc(N4CC(CN5CCC(N6Cc7cc(NC(=O)c8cnn9cccnc89)c(OCC8CC8)cc7C6=O)CC5)C4)ccc3C2=O)C(=O)N1 (centres unmarked) [Example 29]	10 to 50	< 70	50 to 100	70 to 80	70 to 80	< 10	1 to 5	80 to 90	A (A represents a DC90 value <10.0 nM)				
O=C1CCC(N2Cc3cc(N4CCC(F)(CN5CCC(n6cc7cc(NC(=O)c8cnn9cccnc89)c(OCC8CC8)cc7n6)CC5)CC4)ccc3C2=O)C(=O)N1 (centres unmarked) [Example 278]	10 to 50	≥ 90	10 to 50	≥ 90	80 to 90	< 10	< 1	80 to 90	A (A represents a DC90 value <10.0 nM)				
COc1c(N2CC(CN3CCC(n4cc5cc(NC(=O)c6cnn7cccnc67)c(OCC6CC6)cc5n4)CC3)C2)ccc2c1C(=O)N(C1CCC(=O)NC1=O)C2=O (centres unmarked) [Example 285, N-(6-(cyclopropylmethoxy)-2-(1-((1-(2-(2,6-dioxopiperidin-3-yl)-4-methoxy-1,3-dioxoisoindolin-5-yl)azetidin-3-yl)methyl)piperidin-4-yl)-2H-indazol-5-yl)pyrazolo[1,5-a]pyrimidine-3-carboxamide]	< 10	80 to 90	10 to 50	< 70	≥ 90	< 10	1 to 5	80 to 90	A (A represents a DC90 value <10.0 nM)				
O=C1CCC(N2Cc3cc(CCN4CCC(n5cc6cc(NC(=O)c7cnn8cccnc78)c(OCC7CC7)cc6n5)CC4)ccc3C2=O)C(=O)N1 (centres unmarked) [Example 126]	< 10	≥ 90	< 10	< 70	≥ 90	< 10	1 to 5	< 70	B (B represents a DC90 value ≥10.0 nM and <25.0 nM)				
COc1cc2nn(C3CCN(CC4CN(c5ccc6c(c5)CN(C5CCC(=O)NC5=O)C6=O)C4)CC3)cc2cc1NC(=O)c1cnn2cccnc12 (centres unmarked) [Example 142]	< 10	≥ 90	10 to 50	< 70	70 to 80	< 10	< 1	80 to 90	A (A represents a DC90 value <10.0 nM)				
COc1cc(N2CCC(CN3CCC(N4Cc5cc(NC(=O)c6cnn7cccnc67)c(OC(C)C)cc5C4=O)CC3)CC2)cc2c1C(=O)N(C1CCC(=O)NC1=O)C2=O (centres unmarked) [Example 12]	10 to 50	80 to 90	10 to 50	< 70	≥ 90	< 10	< 1	≥ 90	A (A represents a DC90 value <10.0 nM)				
O=C1CCC(NC(=O)c2ccc(N3CCC(CN4CCC(n5cc6cc(NC(=O)c7cnn8cccnc78)c(OCC7CC7)cc6n5)CC4)CC3)cc2F)C(=O)N1 (centres unmarked) [Example 288]	10 to 50	≥ 90	50 to 100	70 to 80	≥ 90	< 10	< 1	≥ 90	A (A represents a DC90 value <10.0 nM)				
O=C1CCC(N2Cc3cc(N4CC(CN5CCC(n6cc7cc(NC(=O)c8cnn9cccnc89)c(C8CC8)cc7n6)CC5)C4)ccc3C2=O)C(=O)N1 (centres unmarked) [Example 136]	< 10	≥ 90	50 to 100	70 to 80	70 to 80	< 10	< 1	≥ 90	A (A represents a DC90 value <10.0 nM)				
CC(C)Oc1cc2c(cc1NC(=O)c1cnn3cccnc13)CN(C1CCN(CC3CN(c4ccc5c(c4)CN(C4CCC(=O)NC4=O)C5=O)C3)CC1)C2=O (centres unmarked) [Example 4]	< 10	≥ 90	10 to 50	80 to 90	≥ 90	< 10	< 1	≥ 90	4 nM				
Cc1cnc2c(C(=O)Nc3cc4c(cc3OC(C)C)C(=O)N(C3CCN(CCc5ccc6c(c5)CN(C5CCC(=O)NC5=O)C6=O)CC3)C4)cnn2c1 (centres unmarked) [Example 9]	< 10	≥ 90	10 to 50	70 to 80	≥ 90	< 10	1 to 5	80 to 90	A (A represents a DC90 value <10.0 nM)				
O=C1CCC(N2Cc3cc(N4CC(CN5CCC(n6cc7cc(NC(=O)c8cnn9cccnc89)c(OCC8CC8)cc7n6)CC5)C4)ccc3C2=O)C(=O)N1 (centres unmarked) [Example 134]	< 10	≥ 90	10 to 50	70 to 80	≥ 90	< 10	< 1	≥ 90	A (A represents a DC90 value <10.0 nM)				
O=C1CCC(N2C(=O)c3ccc(N4CC(CN5CCC([C@H](F)Cn6cc7cc(NC(=O)c8cnn9cccnc89)c(OCC8CC8)cc7n6)CC5)C4)cc3C2=O)C(=O)N1 (some centres unmarked) [Example 173]	10 to 50	≥ 90	10 to 50	< 70	≥ 90	< 10	< 1	≥ 90	A (A represents a DC90 value <10.0 nM)				
O=C1CCC(N2Cc3cc(CCN4CCC(N5Cc6cc(NC(=O)c7cnn8cccnc78)c(N7CCOCC7)cc6C5=O)CC4)ccc3C2=O)C(=O)N1 (centres unmarked) [Example 36]	10 to 50	70 to 80	≥ 100		< 70	< 10	1 to 5	< 70	B (B represents a DC90 value ≥10.0 nM and <25.0 nM)				
O=C1CCC(N2Cc3cc(N4CC(F)(CN5CCC(n6cc7cc(NC(=O)c8cnn9cccnc89)c(OCC8CC8)cc7n6)CC5)C4)ccc3C2=O)C(=O)N1 (centres unmarked) [Example 279]	10 to 50	≥ 90	≥ 100	80 to 90	70 to 80	< 10	< 1	≥ 90	A (A represents a DC90 value <10.0 nM)				
